Test results published in patent US20250066388A1, “1,3,4,7-TETRAHYDRO-2H-PYRROLO[3',2':5,6]PYRIDO[2,3-B][1,4]OXAZEPINE BCL-2 INHIBITORS” (AbbVie Inc., priority 2022, published 2025).

Experiments:
[1] = system: Molt-4 cells; assay: Cell viability counter screen (CellTiter-Glo) in Molt-4 cells; assay type: cell-based; conditions: 24 hours, 10% Human Serum
Protocol: (§1) The acute lymphoblastic leukemia (ALL) human cell line RS4;11 (ATCC, Manassas VA) was used as the primary human cell line to assess the cellular activity of compound of the present Examples in vitro and their efficacy in vivo. […] The acute lymphoblastic leukemia cell line Molt-4, which is derived from immature T-lymphoid cells (T-ALL), was used as a counter screen assay.
(§2) 3000 Cells (0.1×10^6/mL) were seeded in each well of 384-well plate and were treated for 24 hours in a humidified chamber with 5% CO2. Cell viability was determined by CellTiter-Glo as described by the manufacturer's instructions (Promega Corporation, Madison, WI, USA).

[2] = system: RS4;11 cells; assay: Cell viability assay (CellTiter-Glo) in RS4;11 cells; assay type: cell-based; conditions: 24 hours, 10% Human Serum
Protocol: as §1, §2

[3] = biological target: Bcl-xL protein (Homo sapiens (Human), UniProt Q07817); assay: TR-FRET binding assay, Bcl-xL; conditions: F-Bak peptide probe
Chain of Bcl-xL protein (Q07817 other isoform, or with tags, fused parts or gaps): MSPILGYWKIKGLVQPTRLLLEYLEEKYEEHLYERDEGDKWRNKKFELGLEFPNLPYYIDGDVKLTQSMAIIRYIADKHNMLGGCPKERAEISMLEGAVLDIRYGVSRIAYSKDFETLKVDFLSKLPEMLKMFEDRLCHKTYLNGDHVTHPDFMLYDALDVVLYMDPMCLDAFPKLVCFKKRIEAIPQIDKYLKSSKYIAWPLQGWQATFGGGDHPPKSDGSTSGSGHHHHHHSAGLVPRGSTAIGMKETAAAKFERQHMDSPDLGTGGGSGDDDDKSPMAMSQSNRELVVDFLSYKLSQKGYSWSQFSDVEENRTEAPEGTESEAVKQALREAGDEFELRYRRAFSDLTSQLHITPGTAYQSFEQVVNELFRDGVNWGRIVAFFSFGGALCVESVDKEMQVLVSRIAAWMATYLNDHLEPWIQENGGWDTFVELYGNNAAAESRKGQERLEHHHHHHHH
Protocol: (§3) Determination of the utility of compounds having Formula (I) or Formula (II) as binders to and inhibitors of anti-apoptotic Bcl-2 proteins was performed using the Time Resolved-Fluorescence Resonance Energy Transfer (TR-FRET) Assay. Tb-anti-GST antibody was purchased from Invitrogen (Catalog No. PV4216).
A human Bcl-xL encoding sequence was cloned into a pET41A vector. The protein was expressed with E. coli. BL21(DE3)-T1R strain in OETB autoinduction medium at 30° C. for 25 hours. The cell pellets were resuspended in lysis buffer (50 mM Tris, 140 mM NaCl, 1 mM DTT, 10% Glycerol, 0.1% Triton X-100, pH 7.5) and lysed with Microfluidizer. The Bcl-xL protein in clarified cell-lysate was purified with GST affinity chromatography. The eluate was dialyzed in the storage buffer (1×PBS, 10% Glycerol, 2 mM DTT, 1 mM Sodium Azide, pH 7.4) and stored at −80° C.
(§4) […] of a protein (Bcl-2 or Bcl-xL)/probe/antibody mixture pre-equilibrated for one hour in assay buffer was added to each well at final concentrations listed in Table 6 below.
(§5) The samples were then mixed on a shaker for 1 minute and equilibrated for an additional 3 hours at room temperature. For each assay plate, a probe/antibody and protein/antibody/probe mixture were included as a negative and a positive control, respectively. Fluorescence was measured on the Envision (Perkin Elmer) using a 340/35 nm excitation filter and 520/525 (F-Bak) and 495/510 nm (Tb-labeled anti-GST antibody) emission filters. Inhibition constants (Ki) were determined using Wang's equation (Wang FEBS Lett. 1995, 360, 111-114). The TR-FRET assay can be performed in the presence of varying concentrations of human serum (HS) to determine apparent half maximal inhibitory concentration (IC50) after HS protein binding.
(§6) Inhibition constants were determined using Wang's equation (Wang FEBS Lett. 1995, 360:111-4).

[4] = biological target: Bcl-2 protein (Homo sapiens (Human), UniProt P10415); assay: TR-FRET binding assay, Bcl-2; conditions: F-Bak peptide probe, GST-Bcl-2
Chain of Bcl-2 protein (P10415 other isoform, or with tags, fused parts or gaps): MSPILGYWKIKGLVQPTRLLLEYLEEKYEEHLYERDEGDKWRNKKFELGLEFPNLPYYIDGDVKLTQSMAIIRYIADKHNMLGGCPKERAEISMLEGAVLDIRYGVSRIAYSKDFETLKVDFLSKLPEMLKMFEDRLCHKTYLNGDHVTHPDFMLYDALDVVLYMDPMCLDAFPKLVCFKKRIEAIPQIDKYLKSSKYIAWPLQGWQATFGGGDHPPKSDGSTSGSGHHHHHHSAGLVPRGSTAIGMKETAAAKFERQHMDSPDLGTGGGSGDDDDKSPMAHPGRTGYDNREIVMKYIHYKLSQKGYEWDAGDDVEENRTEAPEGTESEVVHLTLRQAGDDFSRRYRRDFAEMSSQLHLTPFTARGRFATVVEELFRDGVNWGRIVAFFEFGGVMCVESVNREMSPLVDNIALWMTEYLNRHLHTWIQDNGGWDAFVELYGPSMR
Protocol: as §3
A Bcl-2 human encoding sequence was cloned into a pET41A vector (Novagen). The protein was expressed with E. coli. BL21(DE3)-T1R strain in OETB autoinduction medium at 30° C. for 25 hours. The cell pellets were resuspended in lysis buffer (50 mM Tris, 140 mM NaCl, 1 mM DTT, 10% Glycerol, 2 mM MgCl2, pH 7.3) and lysed with Microfluidizer. The Bcl-2 protein in clarified cell-lysate was purified with affinity chromatography (GST and Ni-NTA). The eluate was loaded onto a Superdex 75 column and further purified with a Q Sepharose column. The protein was purified on a phenyl hydrophobic interaction column and dialyzed in the storage buffer (50 mM Tris, 50 mM NaCl, 2 mM DTT, pH 7.5) and stored at −80° C.
as §4, §5, §6

Row | Structure (SMILES) | EC50 [1] [nM] | EC50 [2] [nM] | Ki [3] [nM] | Ki [4] [nM]
1 | CC1(C)CC(c2ccc(Cl)cc2)=C2CN3CCN(c4ccc(C(=O)NS(=O)(=O)c5ccc(NC[C@H]6COCCO6)c([N+](=O)[O-])c5)c(N5CCCOc6nc7[nH]ccc7cc65)c4)C[C@H]3COCCCO[C@@H]2C1 [Example 3, N-((4-((((S)-1,4-dioxan-2-yl)methyl)amino)-3-nitrophenyl)sulfonyl)-4-((4aS,10aR)-14-(4-chlorophenyl)-12,12-dimethyl-1,2,4a,5,8,9,10a,11,13,15-decahydro-7H,12H-benzo[f]pyrazino[2,1-c][1,8]dioxa[4]azacycloundecin-3(4H)-yl)-2-(3,4-dihydro-2H-pyrrolo[3′,2′:5,6]pyrido[2,3-b][1,4]oxazepin-1(7H)-yl)benzamide] | 1410 | 1.36 |  | 
2 | C[C@@H]1CC[C@H](CNc2ccc(S(=O)(=O)NC(=O)c3ccc(N4CCN5CC6=C(c7ccc(Cl)cc7)CC(C)(C)C[C@H]6OCCCOC[C@@H]5C4)cc3N3CCCOc4nc5[nH]ccc5cc43)cc2[N+](=O)[O-])OC1 [Example 21, 4-((4aS,10aR)-14-(4-chlorophenyl)-12,12-dimethyl-1,2,4a,5,8,9,10a,11,13,15-decahydro-7H,12H-benzo[f]pyrazino[2,1-c][1,8]dioxa[4]azacycloundecin-3(4H)-yl)-2-(3,4-dihydro-2H-pyrrolo[3′,2′:5,6]pyrido[2,3-b][1,4]oxazepin-1(7H)-yl)-N-((4-((((2R,5R)-5-methyltetrahydro-2H-pyran-2-yl)methyl)amino)-3-nitrophenyl)sulfonyl)benzamide] | 3280 | 4.89 |  | 
3 | CO[C@H]1CC[C@H](CNc2ccc(S(=O)(=O)NC(=O)c3ccc(N4CCN5CC6=C(c7ccc(Cl)cc7)CC(C)(C)C[C@H]6OCCCOC[C@@H]5C4)cc3N3CCCOc4nc5[nH]ccc5cc43)cc2Cl)OC1 [Example 34, N-((3-chloro-4-((((2R,5S)-5-methoxytetrahydro-2H-pyran-2-yl)methyl)amino)phenyl)sulfonyl)-4-((4aS,10aR)-14-(4-chlorophenyl)-12,12-dimethyl-1,2,4a,5,8,9,10a,11,13,15-decahydro-7H,12H-benzo[f]pyrazino[2,1-c][1,8]dioxa[4]azacycloundecin-3(4H)-yl)-2-(3,4-dihydro-2H-pyrrolo[3′,2′:5,6]pyrido[2,3-b][1,4]oxazepin-1(7H)-yl)benzamide] | > 10000 |  | 446 | 0.667
4 | CO[C@H]1CC[C@H](COc2ccc(S(=O)(=O)NC(=O)c3ccc(N4CCN5CC6=C(c7ccc(Cl)cc7)CC(C)(C)C[C@H]6OCCCOC[C@@H]5C4)cc3N3CCCOc4nc5[nH]ccc5cc43)cc2Cl)OC1 [Example 40, N-((3-chloro-4-(((2R,5S)-5-methoxytetrahydro-2H-pyran-2-yl)methoxy)phenyl)sulfonyl)-4-((4aS,10aR)-14-(4-chlorophenyl)-12,12-dimethyl-1,2,4a,5,8,9,10a,11,13,15-decahydro-7H,12H-benzo[f]pyrazino[2,1-c][1,8]dioxa[4]azacycloundecin-3(4H)-yl)-2-(3,4-dihydro-2H-pyrrolo[3′,2′:5,6]pyrido[2,3-b][1,4]oxazepin-1(7H)-yl)benzamide] | > 10000 |  | 199 | 0.349
5 | CC1(C)CC(c2ccc(Cl)cc2)=C2CN3CCN(c4ccc(C(=O)NS(=O)(=O)c5ccc(OC[C@H]6CC[C@](C)(O)CC6)c([N+](=O)[O-])c5)c(N5CCCOc6nc7[nH]ccc7cc65)c4)C[C@H]3COCCCO[C@@H]2C1 [Example 44, 4-((4aS,10aR)-14-(4-chlorophenyl)-12,12-dimethyl-1,2,4a,5,8,9,10a,11,13,15-decahydro-7H,12H-benzo[f]pyrazino[2,1-c][1,8]dioxa[4]azacycloundecin-3(4H)-yl)-2-(3,4-dihydro-2H-pyrrolo[3′,2′:5,6]pyrido[2,3-b][1,4]oxazepin-1(7H)-yl)-N-((4-(((1r,4r)-4-hydroxy-4-methylcyclohexyl)methoxy)-3-nitrophenyl)sulfonyl)benzamide] | 2270 | 4.39 |  | 
